In one test the target is T1, TXA2 synthase (Homo sapiens, UniProt P24557).
T1 construct: human platelet microsomal TXA2 synthase preparation; from tissue; host or cells: human platelet microsomes
T1 sequence (P24557 1-533): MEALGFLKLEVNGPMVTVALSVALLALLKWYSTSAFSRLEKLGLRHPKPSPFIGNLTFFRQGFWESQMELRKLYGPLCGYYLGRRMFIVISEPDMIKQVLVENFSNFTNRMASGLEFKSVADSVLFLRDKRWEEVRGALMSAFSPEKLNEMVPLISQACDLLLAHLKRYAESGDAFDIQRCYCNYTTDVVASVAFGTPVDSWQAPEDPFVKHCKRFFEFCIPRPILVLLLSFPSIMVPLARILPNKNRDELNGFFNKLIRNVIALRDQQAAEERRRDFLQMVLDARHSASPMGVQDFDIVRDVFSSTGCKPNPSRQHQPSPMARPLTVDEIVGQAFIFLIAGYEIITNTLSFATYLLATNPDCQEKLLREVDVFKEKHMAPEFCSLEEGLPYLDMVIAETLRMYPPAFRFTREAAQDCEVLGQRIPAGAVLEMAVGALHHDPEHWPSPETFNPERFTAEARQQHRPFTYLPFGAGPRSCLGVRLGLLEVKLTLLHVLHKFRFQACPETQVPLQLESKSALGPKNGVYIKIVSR
Description: test (e): human platelet microsomal TXA2 synthase inhibition (conversion of arachidonic acid to TXB2). The test is classed as biochemical.

Another test deals with T2, thromboxane receptor (Homo sapiens, UniProt P21731).
T2 construct: human, citrated, platelet-rich plasma; endogenous in cells; host or cells: human platelets in citrated platelet-rich plasma
T2 sequence (P21731 1-343): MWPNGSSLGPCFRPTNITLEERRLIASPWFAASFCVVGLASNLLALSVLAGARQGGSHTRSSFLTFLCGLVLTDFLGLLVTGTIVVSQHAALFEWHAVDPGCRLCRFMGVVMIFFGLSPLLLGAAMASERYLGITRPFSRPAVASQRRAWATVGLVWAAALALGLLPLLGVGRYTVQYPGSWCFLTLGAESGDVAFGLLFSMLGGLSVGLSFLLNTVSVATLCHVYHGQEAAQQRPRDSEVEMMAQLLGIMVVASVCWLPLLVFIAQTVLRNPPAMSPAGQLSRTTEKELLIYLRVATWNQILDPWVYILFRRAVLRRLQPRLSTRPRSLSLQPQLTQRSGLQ
As to the kind of experiment: test (b): blood platelet aggregation test, U46619-stimulated aggregation of human citrated platelet-rich plasma. The test is classed as cell-based. The settings on record: averaged over several concentrations. From the text: (b) a blood platelet aggregation test based on that described by Born (Nature, 1962, 194, 927-929) and involving:
(i) aggregating human, citrated, platelet-rich plasma by addition of the TXA2 mimetic agent U46619 so that a dose-response curve is generated;
(ii) generating a dose-response curve for U46619 stimulated platlet aggregation in the presence of increasing amounts of test compound (generally in the range 10^-5 M to 10^-10 M); and
(iii) calculating a KB value indicating potency of TXA2 antagonism for the test compound, averaged over several concentrations, from the calculated 50% response value for U46619 aggregation in the presence and absence of test compound; or […]

The structures appear in SMILES notation.

`COc1ccc(OC(C)(C)[C@H]2OC[C@@H](C/C=C\CCC(=O)O)[C@@H](c3cccnc3)O2)cc1` (relative stereo) [Example 1, 4(Z)-6[(2,4,5-cis)-2-(1-(4-methoxyphenoxy)-1-methylethyl)-4-(3-pyridyl)-1,3-dioxan-5-yl]-hexenoic acid]: on TXA2 synthase, the IC50 is 40 nM. Also, the Kb on thromboxane receptor is 300 nM.

These data come from US5053415A, “Pyridine derivatives” (Imperial Chemical Industries PLC, priority 1988, dated 1991).
